Laboratory results published in US10994017B2, “Nerve labeling compositions and uses thereof” (Avelas Biosciences, Inc., priority 2016, dated 2021).
Square brackets hold non-standard residues; d marks the D form. Peptide text beside a SMILES is read from it. * marks the point of attachment. X2 = O=C(NCCN1C(=O)CC(*)C1=O)c1ccc(C(=O)O)c(-c2c3ccc(=O)cc-3oc3cc(O)ccc23)c1; X1 = O=C(O)c1ccc(C(=O)*)cc1-c1c2ccc(=O)cc-2oc2cc(O)ccc12

How the values were obtained:
[1] = tested on: sciatic nerve; test: Fluorescence contrast in murine nerves: in vivo imaging of sciatic nerve after intravenous injection; parameters: species or system mouse; details: for N/B contrast compared to the equivalent NDMs comprising L-amino acids / N/S contrast compared to the equivalent NDMs comprising L-amino acids: retro-inverso (D-amino acids) versus NDM-39, NDM-41
Method: The visualization contrast activity of fluorescent peptides for nerve imaging was assessed using male immunocompetent hairless SKH1-E mice purchased from Charles River (Charles River, Wilmington, Mass. 01887, USA). SKH1-E mice weighing 25-30 grams were housed in group of 4 in individually ventilated IVC disposable cages (Innovive, Inc., San Diego, Calif. 92121, USA) and maintained under controlled environmental conditions (12-h/12-h light/dark cycle; temperature of 64-79F and relative humidity of 30-70%) for at least 5 days before experimental use. Animals had free access to standard laboratory rodent diet (Cat. #2018, Teklad Global 18% Protein Rodent Diet; Harlan Laboratories, Inc. Indianapolis, Ind. 46250, USA) and acidified drinking water throughout the course of study. All experiments were carried out under Institutional Animal Care and Use Committee (IACUC) approved protocol.
On the day of study, each involved mouse was weighed, examined for general condition and restrained using a rotating tail injector (Cat. #RTI, Braintree Scientific, Braintree, Mass. 021585, USA) for intravenous (tail vein) injection of test compound in conscious animal. The test compounds were tested (25-150 nmol in 0.1 mL/mouse) was then injected intravenously in mouse using a 28G1/2 Insulin syringe (Cat. #14-826-79, Becton Dickinson and Company, Franklin Lakes, N.J. 07417, USA). After the intravenous injection, each involved mouse was housed back in its assigned cage and kept under controlled environmental conditions before being examined for fluorescence labeling of the sciatic nerve.
Two hours after the intravenous injection, each involved mouse was terminally anesthetized with a mixture of ketamine HCl (Zetamine™, 100 mg/mL, ANADA 200-055 approved by FDA, NDC-13985-702-10; VETone®, Boise, Id. 83705, USA) and xylazine (Rompun™, 100 mg/mL, NADA-047-956 approved by FDA, Bayer HealthCare, LLC, Animal Health Divison, KS 66201, USA) which consisted of a combination of 100 mg/kg of ketamine with 10 mg/kg of xylazine administered intraperitoneally. The terminally anesthetized mouse was transferred on the piece of cork (4×4 inches, Quartet®, ACCO Brands, Lincolnshire, Ill. 60069, USA) for blunt dissection of sciatic nerve after checking the toe pinch reflex. The sciatic nerve was exposed by removing skin from the dorsal surface of the thigh and blunt dissecting the muscles parallel and posterior to the femur after checking […] (no reflex to toe pinch) in terminally anesthetized mouse. Full body imaging of the terminally anesthetized mouse with both sciatic nerves exposed was then performed using a computerized UVP BioSpectrum® 500 Imaging System fitted with appropriate excitation/emission filters for fluorescein, Cy5, or other dye detection and a VisionWorks® LS Software (UVP-BioSpectrum Imaging System, Upland, Calif., USA) for image acquisition and analysis. After the mouse full body imaging, the exposed and saline moisturized sciatic nerves were subsequently imaged using computerized fluorescence stereomicroscope (SZX 10, Olympus Optical, CO, LTD, Japan) interfaced with PictureFrame™, an image processing application suitable for image acquisition and analysis (Optronics, Goleta, Calif. 93117) or an in-house built Microscope Imaging System interfaced with Spot Software 5.0 (SPOT Imaging Solutions, Sterling Heights, Mich. 48314) for image acquisition and analysis. All above-mentioned Imaging Systems were equipped with appropriate excitation/emission filters for fluorescein, Cy5, or other dye detection. Following the imaging session, all captured images of fluorescently labeled sciatic nerves were examined and analyzed using the image processing program Image J to generate quantitative fluorescence data. For each involved mouse, fluorescence intensity of each examined sciatic nerve was acquired by drawing an area on the surface of the exposed sciatic nerve using Image J features and capabilities. […]

[2] = tested on: dorsal subcutaneous cervical or thoracic nerves; test: In vivo fluorescence imaging of dorsal subcutaneous cervical and thoracic nerves (FIG. 2, FIG. 3); parameters: species or system mouse; details: FIG. 2 and FIG. 3, fluorescence versus reflected light images
Excerpt: (§1) Nerves are more clearly visualized utilizing NDM-38.

[3] = tested on: splanchic nerve; test: In vivo fluorescence imaging of splanchnic nerve (FIG. 4); details: FIG. 4, mouse, fluorescence versus reflected light images
Excerpt: as §1

[4] = tested on: renal nerve; test: In vivo fluorescence imaging of renal nerve (FIG. 5); parameters: species or system mouse; details: FIG. 5, fluorescence versus reflected light images

| SMILES | N/B contrast relative to NDMs with glycine linkers ([1]; alanine linker versus NDM-44) | N/S contrast relative to NDMs with glycine linkers ([1]; alanine linker versus NDM-44) | N/B contrast compared to the equivalent NDMs comprising L-amino acids [1] | N/S contrast compared to the equivalent NDMs comprising L-amino acids [1] | fluorescence contrast (nerve/background) of mouse dorsal subcutaneous cervical or thoracic nerves [2] | fluorescence contrast (nerve/background) of splanchic nerve [3] | fluorescence contrast (nerve/background) of mouse renal nerve [4] | fluorescence contrast (nerve/background) of mouse sciatic nerve ([1]; FIG. 1, fluorescence versus reflected light images) |
| --- | --- | --- | --- | --- | --- | --- | --- | --- |
| CC(=O)N[C@H](CCCCNC(=O)c1ccc(C(=O)O)c(-c2c3ccc(=O)cc-3oc3cc(O)ccc23)c1)C(=O)N[C@H](C)C(=O)N[C@H](C)C(=O)N[C@H](C)C(=O)N[C@@H](C(=O)N[C@H](Cc1c[nH]cn1)C(=O)N[C@H](CCC(=O)O)C(N)=O)[C@H](C)O [NDM-38, Ac-[D-Lys(6FAM)]-(D-Ala)-(D-Ala)-(D-Ala)-(D-Thr)-(D-His)-(D-Glu)-NH2] (Ac-[dK](X1)[dA][dA][dA][dT][dH][dE]-NH2) | higher | higher | substantially higher | substantially higher | very high fluorescence contrast | very high fluorescence contrast | very high fluorescence contrast |  |
| CC(=O)N[C@H](CSC1CC(=O)N(CCNC(=O)c2ccc(C(=O)O)c(-c3c4ccc(=O)cc-4oc4cc(O)ccc34)c2)C1=O)C(=O)N[C@H](C)C(=O)N[C@H](C)C(=O)N[C@H](C)C(=O)N[C@@H](C(=O)N[C@H](Cc1c[nH]cn1)C(=O)N[C@H](CCC(=O)O)C(N)=O)[C@H](C)O (stereo partly drawn) [NDM-40, Ac-[D-Cys(6FAM)]-(D-Ala)-(D-Ala)-(D-Ala)-(D-Thr)-(D-His)-(D-Glu)-NH2] (Ac-[dC](X2)[dA][dA][dA][dT][dH][dE]-NH2) |  |  | substantially higher | substantially higher |  |  |  | very high fluorescence contrast |
